Patent US20040127403A1, “Methods for treating and preventing Gram-positive bacteremias” (priority 2002, published 2004)
Converted amounts (≈) assume the structure as drawn. Where two headings read alike, the source gives them in different places.

How the values were obtained:
Assay in all cases: MIC, NCCLS broth microdilution
Format in all cases: cell-based
[1] = system: E. faecalis A7789 Line-R; conditions: Enterococcus faecalis, A7789LINER
Experimental: (§1) The efficacy of ramoplanin was tested against recently isolated VRE that are resistant to linezolid and quinupristin/dalfopristin. The culture media containing ramoplanin was supplemented with 0.02% bovine serum albumin (BSA) to prevent ramoplanin binding to the plastic. MIC values were determined in both cation-adjusted Mueller-Hinton broth (CAMHB) and trypticase soy broth (TSB) by the National Committee for Clinical Laboratory Standards (NCCLS) broth microdilution method. Macromolecular biosynthesis experiments were done by following the incorporation of carbon-14-labeled N-acetylglucosamine, acetic acid, amino acids, uridine, and thymidine into peptidoglycan, fatty acid, protein, RNA and DNA, respectively.

[2] = system: E. faecalis ATCC29212
Experimental: as §1

[3] = system: E. faecalis ATCC51299; conditions: Enterococcus faecalis, ATCC51299, E. faecalis ATCC51299, read-out: MIC
Experimental: as §1

[4] = system: E. faecium 1836; conditions: Enterococcus faecium, 1836, E. faecium 1836, read-out: MIC
Experimental: as §1

[5] = system: E. faecium A-5960 Line-R; conditions: Enterococcus faecium, A5960LINER
Experimental: as §1

[6] = system: E. faecium A2735 Syn-R; conditions: Enterococcus faecium, A2735SYNR, read-out: MIC
Experimental: as §1

[7] = system: E. faecium A4192 Syn-R; conditions: Enterococcus faecium, A4192SYNR, read-out: MIC
Experimental: as §1

[8] = system: E. faecium A5959 Line-R; conditions: Enterococcus faecium, A5959LINER
Experimental: as §1

[9] = system: E. faecium A6343 Line-R; conditions: Enterococcus faecium, A6343LINER, read-out: MIC
Experimental: as §1

[10] = system: E. faecium A6345 Line-R; conditions: for MIC: Enterococcus faecium, A6345LINER, E. faecium A6345 Line-R, read-out: MIC
Experimental: as §1

[11] = system: E. faecium A6349 Line-R; conditions: Enterococcus faecium, A6349LINER, read-out: MIC
Experimental: as §1

[12] = system: E. faecium A6350 Line-R; conditions: Enterococcus faecium, A6350LINER, read-out: MIC
Experimental: as §1

[13] = system: E. faecium ATCC700221; conditions: Enterococcus faecium, ATCC700221, E. faecium ATCC700221, read-out: MIC
Experimental: as §1

[14] = system: E. faecium UA392; conditions: Enterococcus faecium, UA392, E. faecium UA392, read-out: MIC
Experimental: as §1

[15] = system: E. gallinarum UA604; conditions: Enterococcus gallinarum, GALLINARUM, read-out: MIC
Experimental: as §1

[16] = system: S. aureus ATCC12600 MRSA; conditions: Staphylococcus aureus, read-out: MIC
Experimental: as §1

[17] = system: S. aureus ATCC19636 MSSA; conditions: Staphylococcus aureus, read-out: MIC
Experimental: as §1

[18] = system: S. aureus ATCC35556 MRSA; conditions: Staphylococcus aureus, read-out: MIC
Experimental: as §1

[19] = system: S. aureus ATCC43300 MRSA; conditions: Staphylococcus aureus, ATCC 43300 / MRSA / VISA, S. aureus ATCC43300 MRSA/VISA, read-out: MIC
Experimental: as §1

[20] = system: S. aureus ATCC700699 MRSA/VISA; conditions: Staphylococcus aureus, S. aureus ATCC700699 MRSA/VISA, read-out: MIC
Experimental: as §1

[21] = system: S. epidermidis ATCC12228; conditions: Staphylococcus epidermidis, ATCC12228, S. epidermidis ATCC12228, read-out: MIC
Experimental: as §1

[22] = system: S. epidermidis ATCC14990; conditions: Staphylococcus epidermidis, ATCC14990, S. epidermidis ATCC14990, read-out: MIC
Experimental: as §1

[23] = system: S. epidermidis ATCC35983; conditions: Staphylococcus epidermidis, ATCC35983, S. epidermidis ATCC35983, read-out: MIC
Experimental: as §1

[24] = Enterococcus faecalis, ATCC29212, E. faecalis ATCC29212, Table 6, 1st, read-out: MIC
[25] = Enterococcus faecalis, ATCC29212, E. faecalis ATCC29212, Table 6, 2nd, read-out: MIC

CC(=O)NC[C@H]1CN(c2ccc(N3CCOCC3)c(F)c2)C(=O)O1 [Linezolid]
MIC ([1]; Table 6, 1st): > 16 µg/mL
MIC ([1]; Table 6, 2nd): 32 µg/mL (≈ 94.9 µM)
MIC [2, 24]: 4 µg/mL (≈ 11.9 µM)
MIC [2, 25]: 2 µg/mL (≈ 5.93 µM)
MIC ([3]; Table 6, 1st): 2 µg/mL (≈ 5.93 µM)
MIC ([3]; Table 6, 2nd): 2 µg/mL (≈ 5.93 µM)
MIC ([4]; Table 6, 1st): 4 µg/mL (≈ 11.9 µM)
MIC ([4]; Table 6, 2nd): 2 µg/mL (≈ 5.93 µM)
MIC ([5]; Table 6, 1st): > 16 µg/mL
MIC ([5]; Table 6, 2nd): 32 µg/mL (≈ 94.9 µM)
MIC ([6]; Table 6, 1st): 4 µg/mL (≈ 11.9 µM)
MIC ([6]; Table 6, 2nd): 2 µg/mL (≈ 5.93 µM)
MIC ([7]; Table 6, 1st): 4 µg/mL (≈ 11.9 µM)
MIC ([7]; Table 6, 2nd): 2 µg/mL (≈ 5.93 µM)
MIC ([8]; Table 6, 1st): > 16 µg/mL
MIC ([8]; Table 6, 2nd): 16 µg/mL (≈ 47.4 µM)
MIC ([9]; Table 6, 1st): 8 µg/mL (≈ 23.7 µM)
MIC ([9]; Table 6, 2nd): 8 µg/mL (≈ 23.7 µM)
reference MIC for strains used for killing curve ([10]; E. faecium A6345 Line-R. as printed, second row of Table 3): 16 µg/mL
reference MIC for strains used for killing curve ([10]; E. faecium A6345 Line-R., first row of Table 3): 16 to 32 µg/mL
MIC ([10]; Table 6, 1st): > 16 µg/mL
MIC ([10]; Table 6, 2nd): 32 µg/mL (≈ 94.9 µM)
MIC ([11]; Table 6, 1st): 16 µg/mL (≈ 47.4 µM)
MIC ([11]; Table 6, 2nd): 16 µg/mL (≈ 47.4 µM)
MIC ([12]; Table 6, 1st): 4 µg/mL (≈ 11.9 µM)
MIC ([12]; Table 6, 2nd): 2 µg/mL (≈ 5.93 µM)
MIC ([13]; Table 6, 1st): 4 µg/mL (≈ 11.9 µM)
MIC ([13]; Table 6, 2nd): 2 µg/mL (≈ 5.93 µM)
MIC ([14]; Table 6, 1st): 4 µg/mL (≈ 11.9 µM)
MIC ([14]; Table 6, 2nd): 2 µg/mL (≈ 5.93 µM)
MIC ([15]; Table 6, 1st): 4 µg/mL (≈ 11.9 µM)
MIC ([15]; Table 6, 2nd): 2 µg/mL (≈ 5.93 µM)
MIC ([16]; Table 6, 1st): 4 µg/mL (≈ 11.9 µM)
MIC ([16]; Table 6, 2nd): 2 µg/mL (≈ 5.93 µM)
MIC ([17]; Table 6, 1st): 4 µg/mL (≈ 11.9 µM)
MIC ([17]; Table 6, 2nd): 2 µg/mL (≈ 5.93 µM)
MIC ([18]; Table 6, 1st): 4 µg/mL (≈ 11.9 µM)
MIC ([18]; Table 6, 2nd): 2 µg/mL (≈ 5.93 µM)
MIC ([19]; Table 6, 1st): 4 µg/mL (≈ 11.9 µM)
MIC ([19]; Table 6, 2nd): 2 µg/mL (≈ 5.93 µM)
MIC ([20]; Table 6, 1st): 4 µg/mL (≈ 11.9 µM)
MIC ([20]; Table 6, 2nd): 2 µg/mL (≈ 5.93 µM)
MIC ([21]; Table 6, 1st): 2 µg/mL (≈ 5.93 µM)
MIC ([21]; Table 6, 2nd): 2 µg/mL (≈ 5.93 µM)
MIC ([22]; Table 6, 1st): 4 µg/mL (≈ 11.9 µM)
MIC ([22]; Table 6, 2nd): 2 µg/mL (≈ 5.93 µM)
MIC ([23]; Table 6, 1st): 2 µg/mL (≈ 5.93 µM)
MIC ([23]; Table 6, 2nd): 2 µg/mL (≈ 5.93 µM)

COc1cccc(OC)c1C(=O)N[C@@H]1C(=O)N2[C@@H]1SC(C)(C)[C@@H]2C(=O)O [Meth., methicillin]
MIC ([1]; Table 6, 1st): > 16 µg/mL
MIC ([1]; Table 6, 2nd): 32 µg/mL (≈ 84.1 µM)
MIC ([2]; E. faecalis ATCC29212, Table 6, 1st): 16 µg/mL (≈ 42.1 µM)
MIC [2, 24]: > 16 µg/mL
MIC [2, 25]: 32 µg/mL (≈ 84.1 µM)
MIC ([3]; Table 6, 1st): > 16 µg/mL
MIC ([3]; Table 6, 2nd): 32 µg/mL (≈ 84.1 µM)
MIC ([4]; Table 6, 1st): > 16 µg/mL
MIC ([4]; Table 6, 2nd): > 64 µg/mL
MIC ([5]; Table 6, 1st): > 16 µg/mL
MIC ([5]; Table 6, 2nd): > 64 µg/mL
MIC ([6]; Table 6, 1st): > 16 µg/mL
MIC ([6]; Table 6, 2nd): > 64 µg/mL
MIC ([7]; Table 6, 1st): > 16 µg/mL
MIC ([7]; Table 6, 2nd): > 64 µg/mL
MIC ([8]; Table 6, 1st): > 16 µg/mL
MIC ([8]; Table 6, 2nd): > 64 µg/mL
MIC ([9]; Table 6, 1st): > 16 µg/mL
MIC ([9]; Table 6, 2nd): 64 µg/mL (≈ 168 µM)
MIC ([10]; Table 6, 1st): > 16 µg/mL
MIC ([10]; Table 6, 2nd): > 64 µg/mL
MIC ([11]; Table 6, 1st): > 16 µg/mL
MIC ([11]; Table 6, 2nd): > 64 µg/mL
MIC ([12]; Table 6, 1st): > 16 µg/mL
MIC ([12]; Table 6, 2nd): 64 µg/mL (≈ 168 µM)
MIC ([13]; Table 6, 1st): > 16 µg/mL
MIC ([13]; Table 6, 2nd): > 64 µg/mL
MIC ([14]; Table 6, 1st): > 16 µg/mL
MIC ([14]; Table 6, 2nd): > 64 µg/mL
MIC ([15]; Table 6, 1st): > 16 µg/mL
MIC ([15]; Table 6, 2nd): > 64 µg/mL
MIC ([16]; Table 6, 1st): 2 µg/mL (≈ 5.26 µM)
MIC ([16]; Table 6, 2nd): > 64 µg/mL
MIC ([17]; Table 6, 1st): 1 µg/mL (≈ 2.63 µM)
MIC ([17]; Table 6, 2nd): 2 µg/mL (≈ 5.26 µM)
MIC ([18]; Table 6, 1st): 1 µg/mL (≈ 2.63 µM)
MIC ([18]; Table 6, 2nd): 1 µg/mL (≈ 2.63 µM)
MIC ([19]; Table 6, 1st): 8 µg/mL (≈ 21 µM)
MIC ([19]; Table 6, 2nd): 8 µg/mL (≈ 21 µM)
MIC ([20]; Table 6, 1st): > 16 µg/mL
MIC ([20]; Table 6, 2nd): > 64 µg/mL
MIC ([21]; Table 6, 1st): 1 µg/mL (≈ 2.63 µM)
MIC ([21]; Table 6, 2nd): 2 µg/mL (≈ 5.26 µM)
MIC ([22]; Table 6, 1st): 1 µg/mL (≈ 2.63 µM)
MIC ([22]; Table 6, 2nd): 1 µg/mL (≈ 2.63 µM)
MIC ([23]; Table 6, 1st): > 16 µg/mL
MIC ([23]; Table 6, 2nd): 64 µg/mL (≈ 168 µM)
